These results are taken from US8192854B2, “Microbial fuel cell treatment of ethanol fermentation process water” (priority 2009, dated 2012).

The test system of this test is inhibitor-consuming microbial consortium in a microbial fuel cell (MFC-A). The test is described as follows: Effect of inhibitor concentration on electricity production, air-cathode MFC. Conditions: 0.1 g/L to 2 g/L (20.8 mM). The method, then: After confirmation of electricity production from individual inhibitor molecules, the effect of inhibitor concentration on their removal and electricity production was studied. The experiments were conducted by adding each of the substrates individually, at the various concentrations to study substrate inhibition. From day 51 to 62, HB was used as the energy source for the MFC at concentrations from 0.1 to 1 g/L. From day 63 to day 82, 2-furfural was used as the energy source at a concentration from 0.05 to 2 g/L. From day 83 to day 101, VA was used as the substrate from 0.05 to 4 g/L, followed by use of HMF as substrate from day 129 to day 150 at a concentration from 0.2 to 2 g/L. The MFC was operated with 2-furfural as the substrate between day 102 to 128. Effect of acetate was studied in MFC-B up to a concentration of 10 g/L. The voltage output was monitored at each concentration for a period of up to five days. The effect of 2-furfural on electricity production was studied at a concentration from 0.1 g/L to 2 g/L (20.8 mM) using an air-cathode MFC. […] It should be noted that the substrate utilization was limited by the cathode side in an air-cathode MFC used in this study. […] The effect of acetate concentration was also studied in a different MFC (MFC-B) using a consortium enriched on acetate.

As to `O=Cc1ccco1` [2-furfural], the “inhibition of electricity production” value is “No inhibition”.
